The subject of one assay is HeLa cells. Description: Cell cycle and hypodiploid nuclei analysis by PI staining flow cytometry. Type of assay: cell-based, human. The note with it: 72 h, all tested concentrations (50, 30, 20 µM). The protocol:
Given BAG3’s well-documented anti-apoptotic role, annexin V-FITC/PI staining was performed to evaluate the effects of compound 10 on cell apoptosis. […] Specifically, at 50 µM, 81.0 ± 3.89% of the cells were apoptotic (p < 0.001 vs. Ctrl); at 30 µM, 70.5 ± 4.56% were apoptotic (p < 0.01 vs. Ctrl); and at 20 µM, 51.5 ± 2.23% were apoptotic (p < 0.05 vs. Ctrl) (Figure 3A,B).
Hypodiploid nuclei were analyzed using PI staining by flow cytometry. HeLa cells (1 × 10^5 cells/well) were grown in 12-well plates and allowed to adhere for 24 h. Subsequently, the medium was replaced with fresh medium, and the cells were treated for 72 h with compound 10 at concentrations of 20, 30, and 50 µM, 0.1% (v/v) DMSO (negative control), and 10% (v/v) DMSO (positive control). Following treatment, the culture medium was replaced, and the cells were washed twice with PBS. The cells were then suspended in […] of a solution containing 50 mg/L PI, 0.1% (w/v) sodium citrate, and 0.1% Triton X-100. […] After incubation at 4 °C for 30 min in the dark, cell nuclei were analyzed using a Becton Dickinson FACS flow cytometer (Franklin Lakes, NJ, USA) with the Cell Quest program, and the DNA content of the nuclei was recorded. Cellular debris was excluded from the analysis by increasing the forward scatter threshold, and the percentages of cells in the hypodiploid region (sub-G0/G1), G1, S, and G2 regions were calculated. […]
A general note: A flow cytometer gives signals particle by particle.

Another assay deals with caspase 3. Description: Western blot of caspase 3 expression and cleavage. The note with it: HeLa cells, 72 h, 50, 30 and 20 µM. Type of assay: cell-based, human. As for the experimental part: Furthermore, we investigated the expressions of caspases, key mediators of programmed cell death, in HeLa cells treated with compound 10 at the same concentrations used in the previous assays. […] To further confirm the pro-apoptotic mechanism induced by compound 10, Western blotting was performed to measure the expression and cleavage of caspase 3 [38, 39].
The HeLa cell line was seeded in 60 mm culture dishes (20 × 104) and treated with compound 10 (50, 30, 20 μM) for 72 h. After treatments, the cells were washed twice, detached with a scraper, and centrifuged for 10 min (400× g, 4 °C) to remove debris. Total proteins were extracted by lysis buffer (20 mM Tris-HCl pH 7.5, 150 mM NaCl, 1 mM Na2EDTA, 1 mM EGTA, 2% NP-40, 1% sodium deoxycholate, 1× protease, and phosphatase inhibitor cocktail) for 30 min. […] Protein concentration was determined by the Bradford assay using bovine serum albumin as standard. […]
After washes in PBS/Tween-20 0.1% the appropriate anti-rabbit or anti-mouse (1:5000, Pierce, Thermo Fisher Scientific) peroxidase-linked secondary antibody was added for 1 h at room temperature. Antigen–antibody complexes were detected through enhanced chemiluminescence using LAS 4000 (GE Healthcare, Chicago, IL, USA) and a densitometry analysis of the autoradiographs was performed by using the ImageJ program, version 1.47 [38, 39]. […]
On the technique in general: A western blot detects proteins with antibodies after separation by electrophoresis.

`CC(C)Nc1c(-c2ccccc2Br)nc2ccc(Cl)cn12` [Compound 10, 2-(2-bromophenyl)-6-chloro-N-isopropylimidazo[1,2-a]pyridin-3-amine]: in the assay on HeLa cells, the cell cycle arrest result was “consistent and significant cell cycle arrest”; the hypodiploid nuclei entry was “increase in hypodiploid nuclei”. For the same compound, in the assay with caspase 3, the “expression of procaspase 3” value was “increased expression of procaspase 3” and the “levels of cleaved caspase 3” value was “elevated levels of cleaved caspase 3 in a dose-dependent manner”.

Values taken from paper PMC11547576, “Identification of a New Promising BAG3 Modulator Featuring the Imidazopyridine Scaffold” (Molecules, 2024).
